Assay [1] concerns MCF-7 breast cancer cells. The experiment in a line: MTT cytotoxicity assay on MCF-7 cells. The conditions noted are these: Homo sapiens, MCF7, read-out: MCF-7 (IC50). Format: cell-based.
Assay [2] addresses EGFR^wt kinase (Homo sapiens, UniProt P00533). The assay can be described thus: EGFR^wt kinase inhibition assay. The format is biochemical.

Chain of EGFR^wt kinase (P00533 25-1210): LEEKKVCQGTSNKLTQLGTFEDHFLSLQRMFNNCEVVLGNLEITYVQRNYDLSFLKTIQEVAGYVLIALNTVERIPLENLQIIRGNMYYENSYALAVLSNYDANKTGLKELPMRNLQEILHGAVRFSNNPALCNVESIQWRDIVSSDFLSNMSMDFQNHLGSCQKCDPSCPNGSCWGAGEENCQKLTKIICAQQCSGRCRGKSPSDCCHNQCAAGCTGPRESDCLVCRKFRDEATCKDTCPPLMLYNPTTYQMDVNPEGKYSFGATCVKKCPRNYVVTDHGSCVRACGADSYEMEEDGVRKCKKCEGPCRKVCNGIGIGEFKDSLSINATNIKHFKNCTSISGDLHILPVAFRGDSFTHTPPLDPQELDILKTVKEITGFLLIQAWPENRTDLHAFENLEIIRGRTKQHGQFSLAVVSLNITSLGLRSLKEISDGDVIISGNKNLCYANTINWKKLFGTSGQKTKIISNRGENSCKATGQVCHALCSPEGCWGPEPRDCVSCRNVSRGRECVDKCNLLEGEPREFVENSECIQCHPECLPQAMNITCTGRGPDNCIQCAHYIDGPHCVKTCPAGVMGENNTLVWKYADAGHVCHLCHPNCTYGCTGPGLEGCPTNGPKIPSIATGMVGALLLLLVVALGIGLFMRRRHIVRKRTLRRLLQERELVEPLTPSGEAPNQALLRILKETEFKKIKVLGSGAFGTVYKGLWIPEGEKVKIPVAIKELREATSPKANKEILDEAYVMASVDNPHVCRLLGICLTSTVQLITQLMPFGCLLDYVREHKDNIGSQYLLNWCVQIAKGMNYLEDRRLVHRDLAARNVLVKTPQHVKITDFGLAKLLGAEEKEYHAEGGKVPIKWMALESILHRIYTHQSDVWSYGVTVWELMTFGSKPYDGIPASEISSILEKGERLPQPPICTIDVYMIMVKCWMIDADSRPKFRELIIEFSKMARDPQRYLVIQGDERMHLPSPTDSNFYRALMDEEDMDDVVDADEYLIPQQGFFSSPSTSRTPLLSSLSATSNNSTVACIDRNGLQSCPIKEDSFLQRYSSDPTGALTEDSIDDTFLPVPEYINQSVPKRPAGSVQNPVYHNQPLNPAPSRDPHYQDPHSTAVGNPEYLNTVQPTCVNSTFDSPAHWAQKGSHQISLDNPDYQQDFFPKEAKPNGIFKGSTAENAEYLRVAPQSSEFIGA

In the case of `COc1ccc(NC(=O)C2=C(C)NC(C)=C(C(=O)Nc3ccc(OC)cc3OC)C2c2ccccc2)c(OC)c1` [HD-1, N ^3,N^5-Bis(2,4-dimethoxyphenyl)-2,6-dimethyl-4-phenyl-1,4-dihydropyridine-3,5-dicarboxamide], the IC50 in assay [1] worked out at 66.5 µM.

Regarding `COc1ccc(NC(=O)C2=C(C)NC(C)=C(C(=O)Nc3ccc(OC)cc3OC)C2c2ccc(Cl)cc2)c(OC)c1` [HD-2, 4-(4-Chlorophenyl)-N^3,N^5-bis(2,4-dimethoxyphenyl)-2,6-dimethyl-1,4-dihydropyridine-3,5-dicarboxamide], the IC50 in assay [1] was found to be 51.4 µM. For the compound `COc1ccc(NC(=O)C2=C(C)NC(C)=C(C(=O)Nc3ccc(OC)cc3OC)C2c2cccc(Cl)c2)c(OC)c1` [HD-3, 4-(3-Chlorophenyl)-N^3,N^5-bis(2,4-dimethoxyphenyl)-2,6-dimethyl-1,4-dihydropyridine-3,5-dicarboxamide], the IC50 in assay [1] was determined as 59.4 µM. As to `COc1ccc(NC(=O)C2=C(C)NC(C)=C(C(=O)Nc3ccc(OC)cc3OC)C2c2ccco2)c(OC)c1` [HD-4, N ^3,N^5-Bis(2,4-dimethoxyphenyl)-4-(furan-2-yl)-2,6-dimethyl-1,4-dihydropyridine-3,5-dicarboxamide], the IC50 in assay [1] amounted to 36 µM. Same read-out and setting: the same measure for `COc1ccc(NC(=O)C2=C(C)NC(C)=C(C(=O)Nc3ccc(OC)cc3OC)C2c2ccc(O)cc2)c(OC)c1` [HD-5, N ^3,N^5-Bis(2,4-dimethoxyphenyl)-4-(4-hydroxyphenyl)-2,6-dimethyl-1,4-dihydropyridine-3,5-dicarboxamide]: 62.1 µM. On to `COc1cc(NC(=O)C2=C(C)NC(C)=C(C(=O)Nc3cc(OC)c(Cl)cc3OC)C2c2ccccc2)c(OC)cc1Cl` [HD-6, N ^3,N^5-Bis(4-chloro-2,5-dimethoxyphenyl)-2,6-dimethyl-4-phenyl-1,4-dihydropyridine-3,5-dicarboxamide], for which the values for the IC50 in assay [2] and in assay [1] were 0.0305 ± 0.00148 µM and 21.3 µM, respectively.

Turning to `COc1cc(NC(=O)C2=C(C)NC(C)=C(C(=O)Nc3cc(OC)c(Cl)cc3OC)C2c2ccc(Cl)cc2)c(OC)cc1Cl` [HD-7, N ^3,N^5-Bis(4-chloro-2,5-dimethoxyphenyl)-4-(4-chlorophenyl)-2,6-dimethyl-1,4-dihydropyridine-3,5-dicarboxamide], the 50% inhibitory concentration (IC50) in assay [2] came out at 0.0265 ± 0.00142 µM; in assay [1], 16.8 µM. `COc1cc(NC(=O)C2=C(C)NC(C)=C(C(=O)Nc3cc(OC)c(Cl)cc3OC)C2c2cccc(Cl)c2)c(OC)cc1Cl` [HD-8, N ^3,N^5-Bis(4-chloro-2,5-dimethoxyphenyl)-4-(3-chlorophenyl)-2,6-dimethyl-1,4-dihydropyridine-3,5-dicarboxamide]: the IC50 in assay [2] was 0.0159 ± 0.0012 µM; in assay [1], 18.3 µM. Take `COc1cc(NC(=O)C2=C(C)NC(C)=C(C(=O)Nc3cc(OC)c(Cl)cc3OC)C2c2ccco2)c(OC)cc1Cl` [HD-9, N ^3,N^5-Bis(4-chloro-2,5-dimethoxyphenyl)-4-(furan-2-yl)-2,6-dimethyl-1,4-dihydropyridine-3,5-dicarboxamide]: in assay [1], the IC50 is 57.7 µM.

In the case of `COc1cc(NC(=O)C2=C(C)NC(C)=C(C(=O)Nc3cc(OC)c(Cl)cc3OC)C2c2ccc(O)cc2)c(OC)cc1Cl` [HD-10, N ^3,N^5-Bis(4-chloro-2,5-dimethoxyphenyl)-4-(4-hydroxyphenyl)-2,6-dimethyl-1,4-dihydropyridine-3,5-dicarboxamide], the IC50 in assay [1] was determined as 39.6 µM. Still for that read-out and setting: the same measure for `COc1ccc(NC(=O)C2=C(C)NC(C)=C(C(=O)Nc3cc(OC)c(Cl)cc3OC)C2c2ccccc2)c(OC)c1` (stereo not shown) [HD-11, N ^3-(4-Chloro-2,5-dimethoxyphenyl)-N^5-(2,4-dimethoxyphenyl)-2,6-dimethyl-4-phenyl-1,4-dihydropyridine-3,5-dicarboxamide]: 42.4 µM.

With `COc1ccc(NC(=O)C2=C(C)NC(C)=C(C(=O)Nc3cc(OC)c(Cl)cc3OC)C2c2ccc(Cl)cc2)c(OC)c1` (stereo not shown) [HD-12, N ^3-(4-Chloro-2,5-dimethoxyphenyl)-4-(4-chlorophenyl)-N^5-(2,4-dimethoxyphenyl)-2,6-dimethyl-1,4-dihydropyridine-3,5-dicarboxamide], the IC50 in assay [1] worked out at 37.5 µM. On the same count and under the same terms, the same measure for `COc1ccc(NC(=O)C2=C(C)NC(C)=C(C(=O)Nc3cc(OC)c(Cl)cc3OC)C2c2cccc(Cl)c2)c(OC)c1` (stereo not shown) [HD-13, N ^3-(4-Chloro-2,5-dimethoxyphenyl)-4-(3-chlorophenyl)-N^5-(2,4-dimethoxyphenyl)-2,6-dimethyl-1,4-dihydropyridine-3,5-dicarboxamide]: 44.1 µM. Same read-out and setting: the same measure for `COc1ccc(NC(=O)C2=C(C)NC(C)=C(C(=O)Nc3cc(OC)c(Cl)cc3OC)C2c2ccco2)c(OC)c1` (stereo not shown) [HD-14, N ^3-(4-Chloro-2,5-dimethoxyphenyl)-N^5-(2,4-dimethoxyphenyl)-4-(furan-2-yl)-2,6-dimethyl-1,4-dihydropyridine-3,5-dicarboxamide]: 52.3 µM; for `COc1ccc(NC(=O)C2=C(C)NC(C)=C(C(=O)Nc3cc(OC)c(Cl)cc3OC)C2c2ccc(O)cc2)c(OC)c1` (stereo not shown) [HD-15, N ^3-(4-Chloro-2,5-dimethoxyphenyl)-N^5-(2,4-dimethoxyphenyl)-4-(4-hydroxyphenyl)-2,6-dimethyl-1,4-dihydropyridine-3,5-dicarboxamide]: 42.2 µM. The same measure, in the same setting: the value for `CS(=O)(=O)CCNCc1ccc(-c2ccc3ncnc(Nc4ccc(OCc5cccc(F)c5)c(Cl)c4)c3c2)o1` [Lapatinib, reference compound] was 2.02 µM.

The values above are taken from paper PMC11002980 (RSC Advances, 2024).
